Measurements taken from patent publication US8088806B2 (Achillion Pharmaceuticals, Inc., priority 2005, dated 2012).
Where two headings read alike, the source gives them in different places.

Test system: HCV replicon
Assay: Replicon based assay of HCV replication inhibition (NPT ELISA)
Type: cell-based, Hepatitis C virus
Conditions: Hepatitis C virus, read-out: Activity
Outline: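 Huh-7 cells carrying a bicistronic HCV replicon (neo, EMCV-IRES-driven NS3–NS5B) treated overnight after seeding with usually 6 concentrations, 10 to 0.03 micromolar, for three days at 37° C without G418. Replication read as NPT level by captured ELISA; matched-DMSO wells and interferon alpha as controls.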

[1] = replicon based assay of HCV replication inhibition, Table II
[2] = Huh-7, 72 h, Table III, Huh-7 HCV replicon-containing cells, three days

| SMILES | EC50 [1] | EC50 [2] |
| --- | --- | --- |
| FC(F)(F)c1cc(Nc2nc(-c3cccnc3)cs2)ccc1OCCCC1CCCC1 [compound 495, N-(4-(3-cyclopentylpropoxy)-3-(trifluoromethyl)phenyl)-4-(pyridin-3-yl)thiazol-2-amine] | < 1000 nM |  |
| Cc1ccc(-c2csc(Nc3ccc(OCCCC4CCCC4)c(C(F)(F)F)c3)n2)cn1 [compound 496, N-(4-(3-cyclopentylpropoxy)-3-(trifluoromethyl)phenyl)-4-(6-methylpyridin-3-yl)thiazol-2-amine] | < 1000 nM |  |
| CCCCCCCCOc1ccc(Nc2nc(Cc3cccnc3)cs2)cn1 [compound 497, 6-(octyloxy)-N-(4-((pyridin-3-yl)methyl)thiazol-2-yl)pyridin-3-amine] | 1000 to 10000 nM |  |
| CCCCCCCCOc1ccc(Nc2nc(Cc3cccc(F)c3)cs2)cn1 [compound 498, N-(4-(3-fluorobenzyl)thiazol-2-yl)-6-(octyloxy)pyridin-3-amine] | 1000 to 10000 nM |  |
| CCCCCCCCN(C)c1ccc(Nc2nc(Cc3cccc(F)c3)cs2)cc1 [compound 499, N^1-(4-(3-fluorobenzyl)thiazol-2-yl)-N^4-methyl-N^4-octylbenzene-1,4-diamine] | 1000 to 10000 nM |  |
| CCCCCCCCN(C)c1ccc(Nc2nc(Cc3cccnc3)cs2)cc1C(F)(F)F [compound 500, 2-(trifluoromethyl)-N^1-methyl-N^1-octyl-N^4-(4-((pyridin-3-yl)methyl)thiazol-2-yl)benzene-1,4-diamine] | < 1000 nM |  |
| CCCCCCCCOc1ccc(Nc2nc(Cc3cccnc3)cs2)cc1 [compound 501, N-(4-(octyloxy)phenyl)-4-((pyridin-3-yl)methyl)thiazol-2-amine] | 1000 to 10000 nM |  |
| CCCCCCCCN(C)c1ccc(Nc2nc(Cc3cccnc3)cs2)cc1 [compound 503, N^1-methyl-N^1-octyl-N^4-(4-((pyridin-3-yl)methyl)thiazol-2-yl)benzene-1,4-diamine] | > 10000 nM |  |
| CCCCCCCc1ccc(Nc2nc(Cc3cccnc3)cs2)cc1 [compound 504, N-(4-heptylphenyl)-4-((pyridin-3-yl)methyl)thiazol-2-amine] | 1000 to 10000 nM |  |
| CCCCCOc1ccc(Nc2nc(-c3cncnc3)cs2)cc1C(F)(F)F [compound 505, N-(3-(trifluoromethyl)-4-(pentyloxy)phenyl)-4-(pyrimidin-5-yl)thiazol-2-amine] | < 1000 nM |  |
| Fc1cc(Nc2nc(-c3cncnc3)cs2)ccc1OCC1CCCCC1 [compound 506, N-(4-(cyclohexylmethoxy)-3-fluorophenyl)-4-(pyrimidin-5-yl)thiazol-2-amine] | < 1000 nM |  |
| CCCCCCCCOc1ccc(Nc2nc(-c3cncnc3)cs2)cc1 [compound 507, N-(4-(octyloxy)phenyl)-4-(pyrimidin-5-yl)thiazol-2-amine] | < 1000 nM |  |
| Cc1ccc(-c2csc(Nc3ccc(OCC4CCCCC4)c(F)c3)n2)cn1 [compound 508, N-(4-(cyclohexylmethoxy)-3-fluorophenyl)-4-(6-methylpyridin-3-yl)thiazol-2-amine] | < 1000 nM |  |
| Fc1ccc(-c2csc(Nc3ccc(OCC4CCCCC4)c(F)c3)n2)cc1 [compound 509, N-(4-(cyclohexylmethoxy)-3-fluorophenyl)-4-(4-fluorophenyl)thiazol-2-amine] | < 1000 nM |  |
| CCCCCOc1ccc(Nc2nc(-c3ccc(C#N)nc3)cs2)cc1C(F)(F)F [compound 510, 5-(2-(3-(trifluoromethyl)-4-(pentyloxy)phenylamino)thia-zol-4-yl)pyridin-2-carbonitrile] | < 1000 nM |  |
| N#Cc1ccc(-c2csc(Nc3ccc(OCC4CCCCC4)c(F)c3)n2)cn1 [compound 511, 5-(2-(4-(cyclohexylmethoxy)-3-fluorophenylamino)thiazol-4-yl)pyridine-2-carbonitrile] | > 10000 nM |  |
| CCCCCCCCOc1ccc(Nc2nc(-c3ccc(C#N)nc3)cs2)cc1 [compound 512, 5-(2-(4-(octyloxy)phenylamino)thia-zol-4-yl)pyridine-2-carbonitrile] | < 1000 nM |  |
| CCCCCCCCOc1ccc(Nc2nc(Cc3ccccc3)cs2)cc1 [compound 513, 4-benyl-N-(4-(octyloxy)phenyl)thiazol-2-amine] | > 10000 nM |  |
| CCCCCOc1ccc(Nc2nc(Cc3ccccc3)cs2)cc1C(F)(F)F [compound 514, 4-benzyl-N-(3-(trifluoromethyl)-4-(pentyloxy)phenyl)thiazol-2-amine] | > 10000 nM |  |
| CCCCCCCc1ccc(Nc2nc(Cc3ccccc3)cs2)cc1 [compound 515, 4-benzyl-N-(4-heptylphenyl)thiazol-2-amine] | > 10000 nM |  |
| CCCCCCCCOc1ccc(Nc2nc(Cc3cccc(F)c3)cs2)cc1 [compound 516, 4-(3-fluorobenzyl)-N-(4-(octyloxy)phenyl)thiazol-2-amine] | > 10000 nM |  |
| CCCCCOc1ccc(Nc2nc(Cc3cccc(F)c3)cs2)cc1C(F)(F)F [compound 517, 4-(3-fluorobenzyl)-N-(3-(trifluoromethyl)-4-(pentyloxy)phenyl)thiazol-2-amine] | 1000 to 10000 nM |  |

| SMILES | EC50 [1] | EC50 [2] |
| --- | --- | --- |
| CCCCCCCCN(C)c1ccc(Nc2nc(Cc3cccc(F)c3)cs2)cc1C(F)(F)F [compound 518, N^4-(4-(3-fluorobenzyl)thiazol-2-yl)-2-(trifluoromethyl)-N^1-methyl-N^1-octylbenzene-1,4-diamine] | 1000 to 10000 nM |  |
| CCCCCCCc1ccc(Nc2nc(Cc3cccc(F)c3)cs2)cc1 [compound 519, 4-(3-fluorobenzyl)-N-(4-heptylphenyl)thiazol-2-amine] |  | 1000 to 10000 nM |
| CCCCCOc1ccc(Nc2nc(-c3cncc(C#N)c3)cs2)cc1C(F)(F)F [compound 520, 5-(2-(3-(trifluoromethyl)-4-(pentyloxy)phenylamino)thiazol-4-yl)pyridine-3-carbonitrile] |  | < 1000 nM |
| CCCCCOc1ccc(Nc2nc(-c3ccc[n+]([O-])c3)cs2)cc1C(F)(F)F [compound 521] |  | < 1000 nM |
| CCCCCCCCOc1ccc(Nc2nc(-c3ccc[n+]([O-])c3)cs2)cc1 [compound 522] |  | < 1000 nM |
| CCCCCCCOc1ccc(Nc2nc(-c3ccc(NC)nc3)cs2)cc1 [compound 523, 5-(2-(4-(heptyloxy)phenylamino)thiazol-4-yl)-N-methylpyridin-2-amine] |  | < 1000 nM |
| CCCCCCCCc1ccc(Nc2nc(-c3ccc[n+]([O-])c3)cs2)cc1 [compound 524] |  | < 1000 nM |
| CCCCCCCOc1ccc(Nc2nc(-c3ccc[n+]([O-])c3)cs2)cc1 [compound 525] |  | < 1000 nM |
| CCCCCCCCOc1ccc(Nc2nc(-c3ccc(F)nc3)cs2)cc1C(F)(F)F [compound 526, N-(3-(trifluoromethyl)-4-(octyloxy)phenyl)-4-(6-fluoropyridin-3-yl)thiazol-2-amine] |  | < 1000 nM |
| CCCCCOc1ccc(Nc2nc(-c3ccc(F)nc3)cs2)cc1F [compound 527, N-(3-fluoro-4-(pentyloxy)phenyl)-4-(6-fluoropyridin-3-yl)thiazol-2-amine] |  | < 1000 nM |
| Fc1ccc(-c2csc(Nc3ccc(OCCCC4CCCC4)c(C(F)(F)F)c3)n2)cn1 [compound 528, N-(4-(3-cyclopentylpropoxy)-3-(trifluoromethyl)phenyl)-4-(6-fluoropyridin-3-yl)thiazol-2-amine] |  | < 1000 nM |
| CCCCCN(C)c1ccc(Nc2nc(-c3ccc(F)nc3)cs2)cc1C(F)(F)F [compound 529, 2-(trifluoromethyl)-N4-(4-(6-fluoropyridin-3-yl)thiazol-2-yl)-N1-methyl-N1-pentylbenzene-1,4-diamine] |  | < 1000 nM |
| Fc1ccc(-c2csc(Nc3ccc(OCC4CCCCC4)c(F)c3)n2)cn1 [compound 530, N-(4-(cyclohexylmethoxy)-3-fluorophenyl)-4-(6-fluoropyridin-3-yl)thiazol-2-amine] |  | < 1000 nM |
| CCCC/C=C\CCOc1ccc(Nc2nc(-c3cccnc3)cs2)cc1C(F)(F)F [compound 531, N-(4-((Z)-oct-3-enyloxy)-3-(trifluoromethyl)phenyl)-4-(pyridin-3-yl)thiazol-2-amine] |  | < 1000 nM |
| CCCC/C=C\CCOc1ccc(Nc2nc(-c3ccc(C)nc3)cs2)cc1C(F)(F)F [compound 532, N-(4-((Z)-oct-3-enyloxy)-3-(trifluoromethyl)phenyl)-4-(6-methylpyridin-3-yl)thiazol-2-amine] |  | < 1000 nM |
| CCCC/C=C\CCOc1ccc(Nc2nc(-c3ccc(F)cc3)cs2)cc1C(F)(F)F [compound 533, N-(4-((Z)-oct-3-enyloxy)-3-(trifluoromethyl)phenyl)-4-(4-fluorophenyl)thiazol-2-amine] |  | < 1000 nM |
| CCCCCOc1ccc(Nc2nc(-c3ccc4c(c3)OCO4)cs2)cc1C(F)(F)F [compound 534, 4-(benzo[d][1,3]dioxol-6-yl)-N-(3-(trifluoromethyl)-4-(pentyloxy)phenyl)thiazol-2-amine] |  | < 1000 nM |
| CCCCCOc1ccc(Nc2nc(-c3ccc(NC)nc3)cs2)cc1C(F)(F)F [compound 535, 5-(2-(3-(trifluoromethyl)-4-(pentyloxy)phenylamino)thiazol-4-yl)-N-methylpyridin-2-amine] |  | < 1000 nM |
| CCCCCCCCOc1ccc(Nc2nc(-c3ccc(NC)nc3)cs2)cc1C(F)(F)F [compound 536, 5-(2-(3-(trifluoromethyl)-4-(octyloxy)phenylamino)thiazol-4-yl)-N-methylpyridin-2-amine] |  | < 1000 nM |
| CNc1ccc(-c2csc(Nc3ccc(OC4CCCC4)c(C(F)(F)F)c3)n2)cn1 [compound 537, 5-(2-(4-(cyclopentyloxy)-3-(trifluoromethyl)phenylamino)thiazol-4-yl)-N-methylpyndin-2-amine] |  | < 1000 nM |
| CCCCCOc1ccc(Nc2nc(-c3cnc4ccccc4c3)cs2)cc1C(F)(F)F [compound 538, N-(3-(trifluoromethyl)-4-(pentyloxy)phenyl)-4-(quinolin-3-yl)thiazol-2-amine] |  | < 1000 nM |
| CCCCCCCCOc1ccc(Nc2nc(-c3cnc4ccccc4c3)cs2)cc1C(F)(F)F [compound 539, N-(3-(trifluoromethyl)-4-(octyloxy)phenyl)-4-(quinolin-3-yl)thiazol-2-amine] |  | < 1000 nM |
